Legend:
HDAC6 = biological target: T1, HDAC6 (Homo sapiens, UniProt Q9UBN7); assay: HDAC enzyme assays; format: biochemical
T1 construct: purchased BPS Biosciences
Procedure: Compounds for testing were diluted in DMSO to 50 fold the final concentration and a ten point three fold dilution series was made. […] The final enzyme concentrations used in these assays were 3.3 ng/ml (HDAC1), 0.2 ng/ml (HDAC2), 0.08 ng/ml (HDAC3) and 2 ng/ml (HDAC6). […] The IC50 was determined using Graph Pad Prism by a four parameter curve fit.

[1] = Potentiation of PI3K inhibitor GDC-0941 by HDAC6 selective inhibitors (Example 7); format: cell-based; conditions: non-cytotoxic concentrations of the HDAC6 inhibitor
BT-474 = assay: Potentiation effect of HDAC6 inhibitors on Her2+ breast cancer cell lines; format: cell-based; conditions: for cytotoxicity of HDAC6 inhibitor alone: BT-474, at the tested concentrations
Procedure: (§1) The IC50 (Inhibitory Concentration at which 50% of the cells are viable) values of these 4 anti-breast cancer compounds were calculated in the presence of increasing concentrations of a HDAC6 inhibitor.

MDA-MB-453 [2] = assay: as above; format: cell-based; conditions: for cytotoxicity of HDAC6 inhibitor alone: MDA-MB-453, at the tested concentrations
Procedure: as §1

[3] = system: A549 and MDA-MB-231 cancer cells; assay: Migration assay; format: cell-based; conditions: in the presence or absence of epidermal growth factor (EGF)
Procedure: Many cultured cancer cells are able to migrate across a membrane and this activity indicates the metastatic potential of the cancer cells. The migration of two cancer cells, A549 and MDA-MB-231, were compared in the presence or absence of a HDAC6 inhibitor. The cancer cells were seeded and grown on a membrane surface, and the cell numbers on the other side of the membrane were counted under a microscope after 12 hours. […] In the study, an HDAC inhibitor was added to the cells either 2 hours before or when the migration was measured. The effect of HDAC6 inhibitor on Epidermal Growth Factor (EGF) stimulated cancer cell migration using 20 ng/ml of EGF in the assay was investigated.
The protocol for the Migration Assay was as follows. The compounds were prepared in DMSO at 400× stock of the final required concentrations.
200 μl of warm basal RPMI1640 medium was added to the interior of the inserts, allowed to rehydrate for 2 hours in a humidified tissue culture incubator at 37° C., 5% CO2 atmosphere. […] The number of migrated cells were counted under a microscope in five fields at 100× magnification. The viable cells were seeded in the 96 well plate with the same treatment as in the migration assay were measured using CTG (Cell Titer Glow).

BT-549 = assay: Breast cancer cell viability, 48 hours, MTA assay; format: cell-based; conditions: Homo sapiens, BT-549, 48 h
Text: (§2) Cell viabilities were used to calculate “Fraction Affected” (Fa) and “Combination Index” (CI) values using the Chou-Talalay method. Any combination with a CI value<0.70 at a Fa value between 0.25 and 0.75 was defined as positive synergy.

BT474 = assay: Breast cancer cell viability, 48 hours, MTA assay; format: cell-based; conditions: Homo sapiens, BT-474, 48 h
Text: as §2

Bcap-37 = assay: Breast cancer cell viability, 48 hours, MTA assay; format: cell-based; conditions: Homo sapiens, Bcap37, 48 h
Text: as §2

HCC1937 = assay: Breast cancer cell viability, 48 hours, MTA assay; format: cell-based; conditions: Homo sapiens, HCC1937, 48 h
Text: as §2

HCC38 = assay: Breast cancer cell viability, 48 hours, MTA assay; format: cell-based; conditions: Homo sapiens, HCC38, 48 h
Text: as §2

Hs578T = assay: Breast cancer cell viability, 48 hours, MTA assay; format: cell-based; conditions: Homo sapiens, Hs-578T, 48 h
Text: as §2

MCF-7 = assay: Breast cancer cell viability, 48 hours, MTA assay; format: cell-based; conditions: Homo sapiens, MCF7, 48 h
Text: as §2

MDA-MB-231 = assay: Breast cancer cell viability, 48 hours, MTA assay; format: cell-based; conditions: Homo sapiens, MDA-MB-231, 48 h
Text: as §2

MDA-MB-361 = assay: Breast cancer cell viability, 48 hours, MTA assay; format: cell-based; conditions: Homo sapiens, MDA-MB-361, 48 h
Text: as §2

MDA-MB-436 = assay: Breast cancer cell viability, 48 hours, MTA assay; format: cell-based; conditions: Homo sapiens, MDA-MB-436, 48 h
Text: as §2

MDA-MB-453 [4] = assay: Breast cancer cell viability, 48 hours, MTA assay; format: cell-based; conditions: Homo sapiens, MDA-MB-453, 48 h
Text: as §2

MDA-MB-468 = assay: Breast cancer cell viability, 48 hours, MTA assay; format: cell-based; conditions: Homo sapiens, MDA-MB-468, 48 h
Text: as §2

MX-1 = assay: Breast cancer cell viability, 48 hours, MTA assay; format: cell-based; conditions: Homo sapiens, MX1, 48 h
Text: as §2

SK-BR-3 = assay: Breast cancer cell viability, 48 hours, MTA assay; format: cell-based; conditions: Homo sapiens, SK-BR-3, 48 h
Text: as §2

T-47D* = assay: Breast cancer cell viability, 48 hours, MTA assay; format: cell-based; conditions: Homo sapiens, T47D, 48 h
Text: as §2

ZR-75-1 = assay: Breast cancer cell viability, 48 hours, MTA assay; format: cell-based; conditions: Homo sapiens, ZR-75-1, 48 h
Text: as §2

[5] = system: panel of nearly 100 human tumor cell lines; assay: Anti-tumor activity in a panel of nearly 100 human tumor cell lines; format: cell-based; conditions: Her2+ breast cancer cells versus other major cancer types
[6] = system: Her2 protein, p-EGFR, p-AKT in MDA-MB-453; assay: Her2 protein, p-EGFR and p-AKT levels after treatment; format: cell-based; conditions: Her2+ breast cancer cell line MDA-MB-453

T1 sequence (Q9UBN7 whole entry): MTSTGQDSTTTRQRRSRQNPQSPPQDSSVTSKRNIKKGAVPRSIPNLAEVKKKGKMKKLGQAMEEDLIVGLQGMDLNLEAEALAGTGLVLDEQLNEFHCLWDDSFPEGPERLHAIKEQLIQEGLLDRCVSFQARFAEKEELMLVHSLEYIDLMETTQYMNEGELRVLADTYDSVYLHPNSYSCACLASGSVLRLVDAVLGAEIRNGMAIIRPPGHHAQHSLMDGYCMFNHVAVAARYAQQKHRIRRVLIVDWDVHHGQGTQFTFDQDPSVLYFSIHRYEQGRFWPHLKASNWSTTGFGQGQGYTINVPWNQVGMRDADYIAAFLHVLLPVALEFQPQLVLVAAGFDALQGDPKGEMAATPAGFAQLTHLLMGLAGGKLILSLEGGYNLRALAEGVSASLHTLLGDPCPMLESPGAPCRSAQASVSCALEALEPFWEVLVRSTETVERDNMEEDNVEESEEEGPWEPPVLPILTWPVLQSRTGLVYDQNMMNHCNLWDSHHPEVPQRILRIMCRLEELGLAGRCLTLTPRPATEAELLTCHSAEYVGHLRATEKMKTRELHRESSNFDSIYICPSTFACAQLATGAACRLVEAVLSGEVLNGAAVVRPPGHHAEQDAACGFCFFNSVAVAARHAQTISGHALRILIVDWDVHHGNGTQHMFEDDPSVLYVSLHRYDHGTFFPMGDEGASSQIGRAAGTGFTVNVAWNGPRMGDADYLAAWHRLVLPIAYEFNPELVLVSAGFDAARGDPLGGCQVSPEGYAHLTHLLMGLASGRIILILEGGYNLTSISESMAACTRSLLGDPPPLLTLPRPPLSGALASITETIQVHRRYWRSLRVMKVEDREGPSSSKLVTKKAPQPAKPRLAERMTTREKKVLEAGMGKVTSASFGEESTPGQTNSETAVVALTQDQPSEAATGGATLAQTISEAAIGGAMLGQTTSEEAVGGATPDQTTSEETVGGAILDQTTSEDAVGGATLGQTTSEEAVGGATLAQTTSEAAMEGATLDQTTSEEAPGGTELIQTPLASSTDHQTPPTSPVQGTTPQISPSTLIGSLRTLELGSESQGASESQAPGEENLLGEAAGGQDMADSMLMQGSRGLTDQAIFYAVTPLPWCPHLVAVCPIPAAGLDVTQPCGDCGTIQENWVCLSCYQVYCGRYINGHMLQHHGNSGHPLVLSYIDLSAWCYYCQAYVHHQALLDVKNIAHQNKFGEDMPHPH

Which results are given for `O=C(NO)c1cnc(NC2(c3cccc(F)c3)CCCCC2)nc1` [Compound C, 2-((1-(3-fluorophenyl)cyclohexyl)amino)-N-hydroxypyrimidine-5-carboxamide]?
potency as HDAC6 selective inhibitor (HDAC6): low nM potency; potentiation of GDC-0941 (decrease in the IC50 value) [1]: GDC-0941 becomes more potent; cytotoxicity of HDAC6 inhibitor alone (BT-474): not cytotoxic; sensitization to lapatinib and PI3K inhibitors (BT-474; BT-474, lapatinib, IPI-145, GDC-0941 and CAL-101): able to sensitize; cytotoxicity of HDAC6 inhibitor alone (MDA-MB-453 [2]): not cytotoxic; sensitization to lapatinib and PI3K inhibitors (MDA-MB-453 [2]; MDA-MB-453, lapatinib, IPI-145, GDC-0941 and CAL-101): able to sensitize; cancer cell migration [3]: blocked cancer cell migration

Which IC50 (BT-549) does the source give for `O=C(CCCCCCNC(=O)c1cnc(N(c2ccccc2)c2ccccc2)nc1)NO` [Compound A, 2-(diphenylamino)-N-(7-(hydroxyamino)-7-oxoheptyl) pyrimidine-5-carboxamide] here?
The IC50 was 8.97 µM.

And the IC50 (BT474)?
The IC50 was 2.32 µM.

What about the IC50 (Bcap-37) of the same compound?
The IC50 was 7.66 µM.

What about the IC50 (HCC1937) of the same compound?
The IC50 was 11.2 µM.

What about the IC50 (HCC38) of the same compound?
Its IC50 is 7.76 µM.

And the IC50 (Hs578T)?
Its IC50 is 5.57 µM.

And the IC50 (MCF-7)?
The IC50 was 8.95 µM.

And the IC50 (MDA-MB-231)?
The IC50 was 7.49 µM.

And the IC50 (MDA-MB-361)?
The IC50 was 4.51 µM.

What about the IC50 (MDA-MB-436) of the same compound?
Its IC50 is 25.7 µM.

And the IC50 (MDA-MB-453 [4])?
Its IC50 is 1.25 µM.

What about the IC50 (MDA-MB-468) of the same compound?
Its IC50 is 14.9 µM.

And the IC50 (MX-1)?
Its IC50 is 6.38 µM.

And the IC50 (SK-BR-3)?
The IC50 was 1.94 µM.

And the IC50 (T-47D*)?
Its IC50 is 5 µM.

And the IC50 (ZR-75-1)?
The IC50 was 3.57 µM.

What about the “potentiation of GDC-0941 (decrease in the IC50 value)” value [1] of the same compound?
The value was “GDC-0941 becomes more potent”.

What about the “cytotoxicity of HDAC6 inhibitor alone” value (BT-474) of the same compound?
The value was “not cytotoxic”.

And the “cytotoxicity of HDAC6 inhibitor alone” value (MDA-MB-453 [2])?
Its value is “not cytotoxic”.

And the “sensitivity of Her2+ breast cancer cells within the panel” value [5]?
Its value is “among the most sensitive cells”.

And the “Her2 protein, p-EGFR and p-AKT levels” value [6]?
Its value is “decrease of Her2 protein, p-EGFR, and p-AKT”.

Source: US10722512B2, “Combinations of histone deacetylase inhibitors and either HER2 inhibitors or PI3K inhibitors” (Acetylon Pharmaceuticals, Inc., priority 2013, dated 2020)
